The subject of assay [1] is E. coli. From the text:
In the present disclosure, the term “sublethal concentration” refers to a concentration that affects the growth of the bacteria but is not enough to cause bacterial death. The concentration may vary and be determined depending on the particular ROS, bacteria, and/or culture medium employed. In one embodiment of the present disclosure, the sublethal concentration is defined as a minimum concentration at which the growth rate of bacteria remains constant until 1 hr after the treatment with ROS, which begin to decrease 2 hrs after the treatment with ROS.
H2O2 was used as ROS, which was prepared by 1:2 serial dilution.

Assay [2] concerns E. coli. Particulars: E. coli cultured in liquid medium with sub-lethal dose of hydrogen peroxide (FIG. 2). On the procedure: Bacteria Imaging. The bacterial morphologies were observed under a laser scanning microscope using ZEN software. (Zeiss LSM 700). For sampling, 5˜10 ul of the bacteria was dropped on a glass slide and covered with a coverslip. After 20 min of drying in a fume hood, the bacteria were observed using a 100× objective lens. When the bacteria were cultured using a glass-bottom 96-well black plate (Ibidi #89626), the bacteria were fixed with cold acetone and blocked with 1% BSA in PBST for 30 min.
(§1) The serially diluted phage solution was plated to a solid medium containing sublethal dose of H2O2 by using a double agar overlay and the number of phages was counted.

Assay [3] has as its system bacteriophage T4 in E. coli K12 (MG1655). On the procedure: E. coli K12 (MG1655) was cultured overnight. The overnight culture was inoculated at 1:100 (vol:vol) ratio to a 10 ml LB broth in a 50 ml tube and incubated for 1 hr to prepare a fresh culture. When the E. coli K12 strain reached an OD600 of 0.3, H2O2 was added at a final concentration of 4.5 mM and incubated further for 1 hr until OD600 of 0.5˜0.7.
Then T4 was added at a multiplicity of infection (MOI) of 0.001 and incubated further for 5 min at 37° C. in a shaking incubator to allow for phage adsorption. Then the culture was centrifuged at 12,000 rmp for 5 min and the supernatant was removed. Ten ml of fresh LB broth was added to the pellet and resuspended. When the resuspension was completed, which was set to 0 min, the resuspend culture was incubated at a 37° Crotary incubator at 0 min, and 500 μl of the culture was taken at 5 minute intervals. Each of the culture was then plated by a double agar overlay and the number of phages were counted.

For assay [4], the system named is bacteriophage T4 on E. coli. The settings on record: solid medium, sub-lethal dose of hydrogen peroxide. Here is the method: Phage plaque size measurement. Phage plaques were allowed to form on a bacterial lawn and the size measured using a digital caliper.
as §1

[5] abbreviates: 4.5 mM H2O2, liquid medium, T4 at MOI 0.001 (FIG. 3).

Read-outs that look alike come from different tables or passages of the source.

On to `OO` [H2O2, hydrogen peroxide], for which the results for the sublethal concentration in assay [1] (liquid medium (FIG. 1)) and in assay [1] (solid medium) were 4.5 mM and 0.2 mM, respectively. The “bacterial morphology (filamentation, bacterial length)” value in assay [2] is “bacterial filamentation was clearly observed”; in assay [2] (listed as hydrogen peroxide) it was “Increase in bacterial length due to bacterial filamentation”. In assay [3] (setting [5]), the “delay of the start of the burst compared to the control” value is reported as 5 min. Also, in assay [3] (setting [5]), the “increase of the size of the burst compared to the control” value is 6 times. Further, the phage production entry in assay [3] (sublethal dose of H2O2) is “increase in the phage production was clearly observed”. Further, the “increase of plaque size (diameter) compared to the control” value in assay [4] is given as “at least 5 times”.

Source of the values: US20200347362A1, “COMPOSITION AND METHOD FOR INCREASING PRODUCTION OF BACTERIOPHAGE USING REACTIVE OXYGEN SPECIES” (Hankuk University of Foreign Studies Research & Business …, priority 2017, published 2020).
